Experimental data taken from US11400160B2, “Multifunctional conjugates” (E.P.O.S IASIS Research and Development Limited, priority 2017, dated 2022).
pEC50, pIC50: −log10 of the molar value.

Experiments:
MCF-7 cells = experiment: Cell viability, crystal violet colorimetric assay; assay type: cell-based; conditions: 72 hrs; for pIC50: tested at 0.02-0.1 mM, unstarred values
Experimental: Immortalised osteolytic metastatic breast cancer cell lines, a) hormone-dependent MCF-7 and b) hormone refractory MDA-MB231, together with the daughter line MDA-MB231TXSA were incubated with 5 gradual concentrations of compounds of the invention as described below. Cell viability was assessed with the crystal violet colorimetric assay and IC50s were evaluated.
Medium was removed from cell cultures and cells were fixed with 4% v/v formaldehyde for 5 mins at room temperature. Formalin was then removed and CV added for 10 mins at room temperature followed by several washes with dsH2O. Samples were allowed to dry overnight. The following day, 10% acetic acid was added for 15 mins and optical density at 620 nm was measured. Optical densities versus compound concentrations were plotted in graphs and IC50s estimated by linear regression analysis using the WorkOut (VictorX4) software.
MCF-7, MDA-MB231 and MDA-MB231TXSA cells were seeded in 96-well-plates and allowed to attach overnight. […]
Cells were cultured in the presence of the compounds for 72 hrs and viability was assessed on day 3 by crystal violet assay. The cell lines were selected for their high bone metastatic potential. The fluorescently transfected line MB231TXSA, derived from line MB231 is also used in animal studies (WP7).

[1] = system: osteoclasts from RAW264.7 and Human PBMC; experiment: Resorption on pre-loaded whale dentine / osteologic slides (pit formation); assay type: cell-based, murine; conditions: for effect on differentiation and activity of osteoclasts: summary statement
Excerpt: Zoledronic acid was used as control.
(§1) Human peripheral blood mononuclear cells (PBMCs) and the RAW264.7 murine monocytic cell line were differentiated into osteoclast-like cells in the presence of RANKL plus M-CSF and have been used as model systems of osteoclastogenesis. Osteoclast-like cells, from Giant Cell Tumours (GCT) of bone specimens from three independent donors were used to investigate the effect of compounds of the invention on the bone resorbing activity of mature osteoclasts.
Human PBMCs were isolated from normal healthy donors isolated from the buffy coats acquired from the local Red Cross Blood Service. The cells were diluted in Hanks Balanced Salt Solution (HBSS) and separated by gradient centrifugation with Lymphoprep™. Isolated cells were resuspended in α MOD, 10% FCS, L-glutamine (2 mM), Hepes (20 mM), supplemented with M-CSF (25 ng/ml), 1α,25(OH)2 vitamin D3 (10 nM) and dexamethasone (10 nM) and plated into 96-well plates containing whale dentine slices, for the bone resorption assay or directly into wells for TRAP staining. The following day, media were removed and replaced with media as above, supplemented with RANKL (100 ng/ml) in the presence or absence of increasing concentrations of compounds of the invention. Medium and treatments were replaced every three days.
Cells were cultured in 96-well plates at a density of 1×10^4 cells/well in DMEM medium with 10% FCS, L-glutamine (2 mM) and Hepes (20 mM). Cells were allowed to attach for 4 hrs before treatment with RANKL (50 ng/ml) in the presence or absence of increasing concentrations of compounds of the invention as above. Medium and treatments were replaced on day three and TRAP activity determined on day 5. The overall number of viable cells were determined by crystal violet staining.
(§2) Whale dentine slices will be washed in extran, rinsed with distilled water, washed in 70% ethanol and dried overnight. The dentine slices mounted on stubs, carbon-coated and visualised on a Philips XL-20 scanning electron microscope, (SEM) as previously described. Images will be analysed using ImageQuant software and the area of resorption determined for each dentine slice (quadruplicate dentine slices for each treatment). Results are expected to be average resorption area +/− standard errors of the mean (SEM) and the significant differences between treatments will be determined using Students t-tests (2-tailed, unpaired).
(§3) In a separate experiment, pre-loaded bone slices (whale dentine) or commercial forms of hydroxyapatite (osteologic slides) with either free γ-tocopherol (γToc) or γ-tocopherol-bpp(OEt) (BP-γToc) and then washed away unbound drug.

[2] = Binding to pre-loaded bone slices / hydroxyapatite after washing; conditions: pre-loaded whale dentine or osteologic slides, unbound drug washed away
Excerpt: as §3

[3] = system: mature osteoclasts isolated from human Giant Cell Tumours (GCT) of bone; experiment: Bone resorption by mature osteoclasts from Giant Cell Tumours of bone; assay type: cell-based; conditions: osteoclasts from human GCT of bone on whale dentine, 5 days
Excerpt: as §1
To determine the effect of compounds of the invention on bone resorbing activity of mature osteoclast, cultured cells isolated from primary human Giant Cell Tumours of bone specimens were used. These cells were plated on whale dentine slices in 96-well plates at a density of 1×10^5/well and treated for 5 days with increasing concentrations of compounds of the invention. Medium and treatments were replaced on day three and pit formation determined on day 5.
as §2, with “The dentine slices mounted on stubs, carbon-coated and visualised on a Philips XL-20 scanning electron microscope, (SEM) as previously described.” left out

[4] = system: primary human osteoblast cultures; experiment: Osteoblast mineralization (alizarin red, calcium in cell layer); assay type: cell-based; conditions: up to 15 days, osteo-inductive conditions; compared to free BP; alizarin red and calcium; FIG. 6
Experimental: The effect of free γToc and BP-γToc treatment on osteoblast function, using mineralized bone nodule-forming primary human osteoblast cultures was investigated.
Osteoblasts harvested from human donors at the time of joint replacement surgery were cultured up to 15 days in serum-containing medium under osteo-inductive conditions.

Balb/c Nu/Nu mice = experiment: Intratibial injection of compounds, micro-CT trabecular bone volume; assay type: in vivo; conditions: 10 μl into tibial marrow space, 3 weeks, μCT; compared to the maternal BP compound; preliminary data; FIG. 8
Experimental: Four week old female Balb/c Nu/Nu mice were housed under pathogen free conditions, in accordance with the guidelines approved by the Institute of Medical and Veterinary Science animal ethics research committee. Mice were randomly assigned into 3 groups of 4 animals. The left tibia was wiped with 70% ethanol and a 26 gauge needle coupled to a Hamilton syringe, was inserted through the tibial plateau with the knee flexed and 10 μl of each drug injected into the marrow space. Mice were humanely killed 3 weeks post drug administration and bone morphometric parameters were assessed using high resolution micro-CT and histology.
• Group 1: Bpp(OEt) (BP) (20 μM) • Group 2: γ-Tocotrienol (20 μM) • Group 3: γ-Tocotrienol-BP conjugate (20 μM) Micro-Computer Tomography Analysis
Both the right and left tibiae of each animal were mounted in the CT specimen tube and placed securely into the SkyScan-1072 X-ray micro-CT Scanner (Aartselaar, Belgium). The program was commenced with magnification set to give scan slices of 5.2 microns. Three-dimensional (3D) images were generated using Cone-Beam reconstruction and 3D visualisation (Skyscan). Using the two dimensional (2D) images obtained from the micro-CT scan, the growth plate was identified and 750 sections, starting from the growth plate/tibial interface and moving down the tibia, were selected. […]

pEC50 (MCF-7 cells; Exp.1, * denotes EC50 value, read-out: EC50 value (starred) MCF-7) | pIC50 (MCF-7 cells; Exp.2) | binding to bone substrate / bone mineral [2] | pIC50 (MCF-7 cells; Exp.1) | SMILES | effect on differentiation and activity of osteoclasts [1] | bone resorption by already mature osteoclasts [3] | matrix-containing mineralized nodules in osteoblast cultures [4] | trabecular bone volume at the site of injection (Balb/c Nu/Nu mice) | inhibition of resorption on pre-loaded substrate ([1]; pre-loaded, washed, zoledronic acid as control, FIG. 5)
3.36 | 3.89 | not |  | Cc1c(O)cc2c(c1C)O[C@](C)(CCC[C@H](C)CCC[C@H](C)CCCC(C)C)CC2 [γ-toc, γ-tocopherol, reference compound] | inhibitory effect on the differentiation and activity of osteoclasts | inhibited bone resorption | progressively increased matrix-containing mineralized nodules | significant increase in trabecular bone volume | 
 | 4.09 | selectively bound the substrate | 3.94 | CCOP(=O)(OCC)C(CCC(=O)Oc1cc2c(c(C)c1C)OC(C)(CCCC(C)CCCC(C)CCCC(C)C)CC2)P(=O)(OCC)OCC (stereo not drawn) [γ-toc-bpp(OEt), γ-tocopheryl bisphosphonic ester] | retains the inhibitory activity on osteoclast differentiation and bone resorption | inhibited bone resorption | progressively increased matrix-containing mineralized nodules | significant increase in trabecular bone volume | inhibited resorption to an extent comparable with that seen with zoledronic acid
